Results published in ChEMBL document CHEMBL3868610, “Novel bicyclo[3.1.0]hexane analogs as antagonists of metabotropic glutamate 2/3 receptors for the treatment of depression” (Bioorg Med Chem Lett, 2016).
Calls of active or inactive are those of the source. The rule behind the calls is not given here.

Experiments:
[1] = Half life in rat at 10 mg/kg, ip; type: ADME, organism-based; details: in vivo
[2] = Tmax in rat at 10 mg/kg, ip; type: ADME, organism-based; details: in vivo
[3] = biological target: Metabotropic glutamate receptor 2 (Homo sapiens, UniProt Q14416); assay: Displacement of [3H]-LY459477 from human mGlu2 receptor expressed in hamster AV12 cell membranes co-expressing human EAAT1 after 90 mins by liquid scintillation counting method
[4] = biological target: T1, Metabotropic glutamate receptor 3 (Homo sapiens, UniProt Q14832); assay: Antagonist activity at recombinant human mGlu3 receptor expressed in hamster AV12 cells co-expressing human EAAT1 assessed as reduction of DCG-4-inhibited forskolin-stimulated cAMP formation after 20 mins by HTRF assay; type: functional, cell-based
[5] = biological target: T1, Metabotropic glutamate receptor 3; assay: Antagonist activity at recombinant human mGlu3 receptor expressed in hamster AV12 cells assessed as inhibition of DCG-4-inhibited forskolin-stimulated cAMP formation up to 25 uM after 20 mins by HTRF assay relative to control; type: functional, cell-based
Target sequence in this assay (Q14832 23-879 limits assumed): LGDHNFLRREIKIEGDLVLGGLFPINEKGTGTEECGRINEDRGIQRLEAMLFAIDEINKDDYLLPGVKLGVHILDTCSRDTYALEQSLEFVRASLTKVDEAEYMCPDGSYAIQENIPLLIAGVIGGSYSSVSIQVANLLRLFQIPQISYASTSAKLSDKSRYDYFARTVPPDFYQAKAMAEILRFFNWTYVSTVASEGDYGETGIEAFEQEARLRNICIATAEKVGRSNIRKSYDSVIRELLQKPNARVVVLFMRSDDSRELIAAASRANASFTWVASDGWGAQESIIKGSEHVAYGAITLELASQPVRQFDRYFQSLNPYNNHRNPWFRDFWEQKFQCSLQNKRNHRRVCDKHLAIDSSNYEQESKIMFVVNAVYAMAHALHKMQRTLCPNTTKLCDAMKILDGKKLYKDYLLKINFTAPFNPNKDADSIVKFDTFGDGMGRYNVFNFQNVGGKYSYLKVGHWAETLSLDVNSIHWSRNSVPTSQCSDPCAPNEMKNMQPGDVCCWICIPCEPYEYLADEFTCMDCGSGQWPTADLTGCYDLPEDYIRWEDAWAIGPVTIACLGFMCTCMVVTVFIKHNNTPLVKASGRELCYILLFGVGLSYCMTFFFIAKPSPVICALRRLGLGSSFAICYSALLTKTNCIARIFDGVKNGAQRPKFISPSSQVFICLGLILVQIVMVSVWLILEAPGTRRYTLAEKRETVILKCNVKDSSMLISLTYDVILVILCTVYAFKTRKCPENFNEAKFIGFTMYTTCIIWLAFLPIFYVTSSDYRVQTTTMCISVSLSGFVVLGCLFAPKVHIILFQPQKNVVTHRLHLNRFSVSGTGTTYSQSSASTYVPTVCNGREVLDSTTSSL

[6] = biological target: Metabotropic glutamate receptor 1 (Homo sapiens, UniProt Q13255); assay: Agonist activity at recombinant human mGlu1 receptor expressed in hamster AV12 cells co-expressing human EAAT1/Galpha1s assessed as increase in Ca2+ flux by Fluo-3-AM dye based FLIPR assay; type: functional, cell-based
[7] = biological target: Metabotropic glutamate receptor 5 (Homo sapiens, UniProt P41594); assay: Antagonist activity at recombinant human mGlu5 receptor expressed in hamster AV12 cells coexpressing human EAAT1/Galpha1s assessed as inhibition of Ca2+ flux by Fluo-3-AM dye based FLIPR assay; type: functional, cell-based
[8] = biological target: T2, Metabotropic glutamate receptor 7 (Homo sapiens, UniProt Q14831); assay: Antagonist activity at recombinant human mGlu7 receptor expressed in hamster AV12 cells co-expressing human EAAT1/Galpha1s assessed as inhibition of Ca2+ flux by Fluo-3-AM dye based FLIPR assay; type: functional, cell-based
[9] = biological target: T2, Metabotropic glutamate receptor 7; assay: Agonist activity at recombinant human mGlu7 receptor expressed in hamster AV12 cells co-expressing human EAAT1/Galpha1s assessed as increase in Ca2+ flux by Fluo-3-AM dye based FLIPR assay; type: functional, cell-based
[10] = Drug metabolism in human microsomes at 4 uM after 30 mins; type: ADME, Microsome; details: read-out: Drug metabolism
CYP3A4 = CYP3A4 (Homo sapiens, UniProt P08684); assay: Inhibition of human CYP3A4 at 10 uM; type: ADME
[11] = Unbound fraction in rat plasma at 1 uM; type: ADME, cell-free
[12] = Unbound fraction in monkey plasma at 1 uM; type: ADME, cell-free, Macaca mulatta; details: rhesus monkey
[13] = Unbound fraction in human plasma at 1 uM; type: ADME, cell-free
[14] = AUC (0 to 24 hrs) in rat at 1 mg/kg, iv; type: ADME, organism-based; design: dose 1 mg/kg, time < 24 hr, route intravenous; details: in vivo
[15] = Half life in rat at 1 mg/kg, iv; type: ADME, organism-based; details: in vivo
[16] = Cmax in rat at 5 mg/kg, po; type: ADME, organism-based; design: dose 5 mg/kg, route oral; details: in vivo
[17] = Half life in rat at 5 mg/kg, po; type: ADME, organism-based; details: in vivo
[18] = Oral bioavailability in rat at 5 mg/kg; type: ADME, organism-based; details: in vivo
[19] = Antidepressant activity in rat EEG model assessed as accumulated wake time at 3 mg/kg, ip measured over 7 hrs relative to control; type: functional, organism-based
[20] = Antidepressant activity in rat EEG model assessed as accumulated wake time at 10 mg/kg, ip measured over 7 hrs relative to control; type: functional, organism-based
[21] = Antidepressant activity in ip dosed rat EEG model assessed as accumulated wake time measured over 7 hrs relative to control; type: functional, organism-based
Rattus norvegicus = assay: Toxicity in rat assessed as increase in locomotive activity at 3 to 10 mg/kg, ip; type: organism-based; details: in vivo

T2 sequence (Q14831 whole entry): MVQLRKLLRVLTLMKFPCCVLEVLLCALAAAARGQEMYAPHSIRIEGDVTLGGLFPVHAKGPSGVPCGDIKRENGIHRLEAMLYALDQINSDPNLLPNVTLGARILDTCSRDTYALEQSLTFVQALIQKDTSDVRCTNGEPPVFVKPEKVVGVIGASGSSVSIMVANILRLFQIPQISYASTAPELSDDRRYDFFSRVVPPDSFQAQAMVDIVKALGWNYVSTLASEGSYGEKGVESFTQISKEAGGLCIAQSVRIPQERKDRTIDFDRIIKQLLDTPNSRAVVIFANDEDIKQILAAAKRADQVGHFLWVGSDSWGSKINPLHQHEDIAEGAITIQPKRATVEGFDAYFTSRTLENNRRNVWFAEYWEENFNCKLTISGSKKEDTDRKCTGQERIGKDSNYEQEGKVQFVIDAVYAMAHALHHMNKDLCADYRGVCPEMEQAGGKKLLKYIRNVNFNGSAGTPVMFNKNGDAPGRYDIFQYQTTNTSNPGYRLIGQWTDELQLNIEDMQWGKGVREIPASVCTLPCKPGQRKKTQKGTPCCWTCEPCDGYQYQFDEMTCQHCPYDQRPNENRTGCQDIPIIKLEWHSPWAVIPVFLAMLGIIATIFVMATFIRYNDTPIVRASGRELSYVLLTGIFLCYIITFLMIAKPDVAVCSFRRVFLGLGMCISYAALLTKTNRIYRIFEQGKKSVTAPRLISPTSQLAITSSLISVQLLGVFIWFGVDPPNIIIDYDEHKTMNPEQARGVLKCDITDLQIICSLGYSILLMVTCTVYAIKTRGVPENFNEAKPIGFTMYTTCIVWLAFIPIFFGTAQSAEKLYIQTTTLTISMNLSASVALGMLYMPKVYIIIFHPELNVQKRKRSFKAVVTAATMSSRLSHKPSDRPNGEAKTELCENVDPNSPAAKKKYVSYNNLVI
Chain of Metabotropic glutamate receptor 1 (Q13255 whole entry): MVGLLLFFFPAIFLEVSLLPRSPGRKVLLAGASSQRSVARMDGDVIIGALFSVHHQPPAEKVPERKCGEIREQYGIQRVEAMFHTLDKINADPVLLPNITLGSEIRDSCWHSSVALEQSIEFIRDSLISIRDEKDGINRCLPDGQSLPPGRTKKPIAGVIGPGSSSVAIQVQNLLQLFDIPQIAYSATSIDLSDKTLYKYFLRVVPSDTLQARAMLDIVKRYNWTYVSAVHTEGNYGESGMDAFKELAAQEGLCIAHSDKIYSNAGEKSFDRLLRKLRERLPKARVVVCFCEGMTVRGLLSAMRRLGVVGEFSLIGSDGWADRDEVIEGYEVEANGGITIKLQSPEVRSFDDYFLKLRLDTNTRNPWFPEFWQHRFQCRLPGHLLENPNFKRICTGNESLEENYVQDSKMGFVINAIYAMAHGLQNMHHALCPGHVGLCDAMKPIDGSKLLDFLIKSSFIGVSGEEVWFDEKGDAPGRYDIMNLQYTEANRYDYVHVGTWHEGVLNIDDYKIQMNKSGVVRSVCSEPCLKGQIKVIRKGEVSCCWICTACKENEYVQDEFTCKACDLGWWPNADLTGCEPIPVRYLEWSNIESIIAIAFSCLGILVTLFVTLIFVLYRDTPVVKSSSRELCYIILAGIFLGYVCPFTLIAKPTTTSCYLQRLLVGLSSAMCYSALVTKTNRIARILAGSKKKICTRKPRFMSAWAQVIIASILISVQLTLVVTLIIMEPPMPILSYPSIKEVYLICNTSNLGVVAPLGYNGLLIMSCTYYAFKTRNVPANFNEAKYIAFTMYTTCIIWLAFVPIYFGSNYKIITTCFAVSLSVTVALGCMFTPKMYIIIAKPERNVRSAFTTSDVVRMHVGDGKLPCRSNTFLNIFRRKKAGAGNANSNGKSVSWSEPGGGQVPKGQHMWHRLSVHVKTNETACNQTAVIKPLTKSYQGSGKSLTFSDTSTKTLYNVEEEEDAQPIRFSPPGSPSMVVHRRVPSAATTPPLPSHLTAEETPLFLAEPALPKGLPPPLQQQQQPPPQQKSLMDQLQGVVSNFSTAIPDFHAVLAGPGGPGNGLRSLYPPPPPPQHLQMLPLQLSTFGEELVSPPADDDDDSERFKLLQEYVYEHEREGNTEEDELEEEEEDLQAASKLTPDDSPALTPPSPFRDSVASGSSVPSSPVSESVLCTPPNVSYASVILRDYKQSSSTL
Chain of Metabotropic glutamate receptor 5 (P41594 whole entry): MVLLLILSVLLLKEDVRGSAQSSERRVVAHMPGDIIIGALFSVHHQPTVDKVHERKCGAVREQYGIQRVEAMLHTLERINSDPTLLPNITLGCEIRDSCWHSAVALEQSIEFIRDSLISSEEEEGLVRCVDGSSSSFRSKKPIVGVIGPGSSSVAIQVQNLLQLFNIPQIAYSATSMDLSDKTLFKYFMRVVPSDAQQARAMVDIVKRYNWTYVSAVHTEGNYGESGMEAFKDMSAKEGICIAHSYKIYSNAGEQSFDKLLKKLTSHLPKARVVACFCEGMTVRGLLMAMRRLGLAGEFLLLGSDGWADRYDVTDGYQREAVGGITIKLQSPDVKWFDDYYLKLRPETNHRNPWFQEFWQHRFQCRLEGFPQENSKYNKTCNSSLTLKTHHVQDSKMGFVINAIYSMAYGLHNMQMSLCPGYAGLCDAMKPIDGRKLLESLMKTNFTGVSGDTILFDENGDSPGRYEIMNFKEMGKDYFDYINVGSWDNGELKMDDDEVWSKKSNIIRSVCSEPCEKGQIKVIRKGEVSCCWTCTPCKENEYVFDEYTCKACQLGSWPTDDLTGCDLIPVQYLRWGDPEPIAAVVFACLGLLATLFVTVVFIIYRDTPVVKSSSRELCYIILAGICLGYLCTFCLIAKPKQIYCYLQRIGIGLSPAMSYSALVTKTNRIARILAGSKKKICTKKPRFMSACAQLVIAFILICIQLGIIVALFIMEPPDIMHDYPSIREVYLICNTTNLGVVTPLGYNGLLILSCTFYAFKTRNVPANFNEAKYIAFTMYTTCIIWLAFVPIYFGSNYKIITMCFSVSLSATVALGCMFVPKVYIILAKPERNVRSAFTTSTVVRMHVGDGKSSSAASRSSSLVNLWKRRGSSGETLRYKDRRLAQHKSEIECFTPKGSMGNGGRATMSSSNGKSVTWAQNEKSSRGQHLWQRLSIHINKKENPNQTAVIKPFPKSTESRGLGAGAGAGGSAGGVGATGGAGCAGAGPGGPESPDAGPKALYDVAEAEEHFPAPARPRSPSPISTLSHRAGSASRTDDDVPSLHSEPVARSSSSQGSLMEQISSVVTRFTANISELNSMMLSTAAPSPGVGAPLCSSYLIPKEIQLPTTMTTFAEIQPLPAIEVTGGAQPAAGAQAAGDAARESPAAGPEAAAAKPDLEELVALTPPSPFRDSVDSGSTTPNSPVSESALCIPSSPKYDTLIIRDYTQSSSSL
Chain of CYP3A4 (P08684 whole entry): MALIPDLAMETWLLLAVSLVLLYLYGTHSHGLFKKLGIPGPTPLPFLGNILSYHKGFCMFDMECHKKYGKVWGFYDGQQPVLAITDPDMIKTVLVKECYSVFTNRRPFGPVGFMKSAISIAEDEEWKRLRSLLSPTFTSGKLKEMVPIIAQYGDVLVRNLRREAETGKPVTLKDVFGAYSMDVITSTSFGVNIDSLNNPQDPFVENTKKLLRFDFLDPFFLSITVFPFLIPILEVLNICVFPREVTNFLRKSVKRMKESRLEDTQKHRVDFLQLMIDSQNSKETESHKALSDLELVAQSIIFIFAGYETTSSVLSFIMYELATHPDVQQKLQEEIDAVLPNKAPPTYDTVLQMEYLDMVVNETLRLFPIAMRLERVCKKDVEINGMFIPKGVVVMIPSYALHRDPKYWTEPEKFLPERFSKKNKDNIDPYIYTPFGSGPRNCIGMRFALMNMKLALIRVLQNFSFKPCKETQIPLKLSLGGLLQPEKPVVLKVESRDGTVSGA

half-life [1]: 4.48 h
Tmax [2]: 0.38 h
Ki [3]: 0.0201 µM
IC50 [4]: 0.0461 µM
Imax [4]: > 94%
inhibition [5]: Active
EC50 [6]: > 25 µM
IC50 [7]: > 12.5 µM
IC50 [8]: 10.5 µM
EC50 [9]: > 25 µM
metabolised at 0.5 h, 4 µM [10]: < 20%
inhibition at 10 µM (CYP3A4): < 5%
fraction unbound at 1 µM [11]: > 0.4
fraction unbound at 1 µM [12]: > 0.4
fraction unbound at 1 µM [13]: > 0.4
AUC [14]: 32.165 µM·h
half-life [15]: 4.61 h
Cmax [16]: 262 nM
half-life [17]: 5.49 h
F [18]: 6%
Structure (SMILES): N[C@]1(C(=O)O)[C@@H]2[C@@H](C(=O)O)[C@@H]2[C@H](O)[C@H]1OCc1ccc(Cl)c(Cl)c1
Activity [19]: Dose-dependent effect
TIME [20]: 0.683 h
TIME [21]: 2.18 h
Activity (Rattus norvegicus): Non-Toxic
